# Source: US10167279B2 (NOVARTIS AG, priority 2014, dated 2019)
# Target: C-Raf FL (Homo sapiens (Human), UniProt P04049, Y340E/Y341E)
# Assay: In vitro Raf activity determination (Alpha Screen, phospho-MEK), C-Raf FL (full length, Y340E/Y341E)
# Assay type: biochemical
# Conditions: ATP 1 μM; 60 min pre-incubation; 1 hour reaction; column head does not say FL or TR
# Outline: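 Sf9-expressed C-Raf incubated with biotinylated kinase-dead MEK1 (K97R) in 50 mM Tris pH 7.5, 15 mM MgCl2, 0.01% BSA, 1 mM DTT with compound, 60 min at room temperature. Phospho-MEK detected by anti-p-MEK AlphaScreen luminescence; IC50 by non-linear regression.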
# Chain of C-Raf FL (P04049 whole entry Y340E/Y341E): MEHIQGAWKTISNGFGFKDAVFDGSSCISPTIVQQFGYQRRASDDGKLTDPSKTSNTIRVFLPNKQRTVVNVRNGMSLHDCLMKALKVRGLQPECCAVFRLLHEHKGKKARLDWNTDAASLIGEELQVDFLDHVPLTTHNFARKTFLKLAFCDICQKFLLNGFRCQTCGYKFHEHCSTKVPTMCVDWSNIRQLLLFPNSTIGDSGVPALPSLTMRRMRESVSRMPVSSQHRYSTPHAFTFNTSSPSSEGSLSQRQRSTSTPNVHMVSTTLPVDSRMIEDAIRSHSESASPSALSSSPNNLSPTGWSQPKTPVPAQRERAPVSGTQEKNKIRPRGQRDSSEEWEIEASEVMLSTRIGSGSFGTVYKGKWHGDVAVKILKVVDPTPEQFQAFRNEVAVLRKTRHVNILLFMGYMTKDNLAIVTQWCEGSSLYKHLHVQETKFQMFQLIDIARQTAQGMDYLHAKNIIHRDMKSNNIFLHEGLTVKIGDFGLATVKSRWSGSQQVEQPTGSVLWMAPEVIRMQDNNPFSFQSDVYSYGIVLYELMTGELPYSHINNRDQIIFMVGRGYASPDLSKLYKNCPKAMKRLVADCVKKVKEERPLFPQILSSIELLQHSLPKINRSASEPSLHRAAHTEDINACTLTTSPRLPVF
# Chain of C-Raf FL (P63104 whole entry partner): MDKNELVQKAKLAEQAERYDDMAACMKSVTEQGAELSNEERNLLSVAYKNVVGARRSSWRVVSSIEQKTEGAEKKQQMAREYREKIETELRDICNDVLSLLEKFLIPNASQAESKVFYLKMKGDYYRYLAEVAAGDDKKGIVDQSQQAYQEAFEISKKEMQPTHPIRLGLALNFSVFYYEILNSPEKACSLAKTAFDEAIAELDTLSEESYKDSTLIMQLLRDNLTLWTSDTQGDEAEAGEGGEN
row,Structure (SMILES),IC50
1,"Cc1ccc(NC(=O)c2ccnc(C(C)(C)C#N)c2)cc1-c1cc(NCCO)nc(C2CCOCC2)c1 [Example 175, 2-(2-cyanopropan-2-yl)-N-(3-(2-((2-hydroxyethyl)amino)-6-(tetrahydro-2H-pyran-4-yl)pyridin-4-yl)-4-methylphenyl) isonicotinamide]",0.83 nM
2,Cc1ncc(NC(=O)c2cccc(C(F)(F)F)c2)cc1-c1cc(C2(C)COC2)c(OC2CCOCC2)nn1 [Example 11],0.6 nM
3,"CCOc1nnc(-c2cc(NC(=O)c3ccnc(C(C)(C)F)c3)ccc2C)cc1C1CCOCC1 [Example 238, N-(3-(6-ethoxy-5-(tetrahydro-2H-pyran-4-yl)pyridazin-3-yl)-4-methylphenyl)-2-(2-fluoropropan-2-yl) isonicotinamide]",0.07 nM
4,Cc1ccc(NC(=O)c2ccnc(C(F)(F)F)c2)cc1-c1cc(C2CCOCC2)c(N(C)CCO)nn1 [Example 308],0.5 nM
5,"Cc1nc2cc(C3CCOCC3)cc(-c3cc(NC(=O)c4ccnc(C(C)(F)F)c4)ccc3C)c2[nH]1 [Example 222, 2-(1,1-difluoroethyl)-N-(4-methyl-3-(2-methyl-5-(tetrahydro-2H-pyran-4-yl)-1H-benzo[d]imidazol-7-yl)phenyl) isonicotinamide]",0.4 nM
6,"Cc1ccc(NC(=O)c2cnnc(C(F)(F)F)c2)cc1-c1cc(OCCO)nc(C2(CF)CCOCC2)c1 [Example 212, N-(3-(2-(4-(fluoromethyl)tetrahydro-2H-pyran-4-yl)-6-(2-hydroxyethoxy)pyridin-4-yl)-4-methylphenyl)-6-(trifluoromethyl) pyridazine-4-carboxamide]",0.08 nM
7,"Cc1ccc(NC(=O)c2ccnc(C3(C(F)(F)F)CC3)c2)cc1-c1cc(OC[C@H](O)CO)nc(C2CCOCC2)c1 [Example 275, (R)-N-(3-(2-(2,3-dihydroxypropoxy)-6-(tetrahydro-2H-pyran-4-yl)pyridin-4-yl)-4-methylphenyl)-2-(1-(trifluoromethyl)cyclopropyl) isonicotinamide]",0.2 nM
8,"Cc1ccc(NC(=O)c2cnnc(C(F)(F)F)c2)cc1-c1cc2c(c(C3CCOCC3)c1)OC(C)(CO)C(=O)N2 (stereo not shown) [Example 201, N-(3-(2-(hydroxymethyl)-2-methyl-3-oxo-8-(tetrahydro-2H-pyran-4-yl)-3,4-dihydro-2H-benzo[b][1,4]oxazin-6-yl)-4-methylphenyl)-6-(trifluoromethyl) pyridazine-4-carboxamide]",0.1 nM
9,Cc1ccc(NC(=O)c2ccnc(C(F)(F)F)c2)cc1-c1cc(OCCO)nc(C2(CO)CCOCC2)c1 [Example 215],0.1 nM
10,"COCCNc1nnc(-c2cc(NC(=O)c3ccnc(C(F)(F)F)c3)ccc2C)cc1C1CCOCC1 [Example 307, N-(3-(6-((2-methoxyethyl)amino)-5-(tetrahydro-2H-pyran-4-yl)pyridazin-3-yl)-4-methylphenyl)-2-(trifluoromethyl)isonicotinamide]",0.08 nM
11,"CCOc1nnc(-c2cc(NC(=O)c3ccc4c(c3)CNC4)ccc2C)cc1C1CCOCC1 [Example 285, N-(3-(6-ethoxy-5-(tetrahydro-2H-pyran-4-yl)pyridazin-3-yl)-4-methylphenyl) isoindoline-5-carboxamid]",0.9 nM
12,"Cc1ccc(NC(=O)c2ccnc(C(F)(F)F)c2)cc1-c1cc(OCCO)nc(C2(O)CCOCC2)c1 [Example 305, N-(3-(2-(2-hydroxyethoxy)-6-(4-hydroxytetra-hydro-2H-pyran-4-yl)pyridin-4-yl)-4-methylphenyl)-2-(trifluoro-methyl) isonicotinamide]",0.331 nM
13,"CCOc1ncc(-c2cc(NC(=O)c3cccc(C(F)(F)F)c3)cnc2C)cc1C1(CF)CCOC1 (stereo not shown) [Example 167, N-(6′-ethoxy-5′-(3-(fluoromethyl)tetrahydrofuran-3-yl)-2-methyl-[3,3′-bipyridin]-5-yl)-3-(trifluoromethyl) benzamide]",1 nM
14,"Cc1ccc(NC(=O)c2ccnc(C(F)(F)F)c2)cc1-c1cc2c(c(C3CCOCC3)c1)NC(=O)C(C)(CO)O2 (stereo not shown) [Example 242, N-(3-(2-(hydroxymethyl)-2-methyl-3-oxo-5-(tetrahydro-2H-pyran-4-yl)-3,4-dihydro-2H-benzo[b][1,4]oxazin-7-yl)-4-methylphenyl)-2-(trifluoromethyl) isonicotinamide]",0.1 nM
15,"CCOc1ncc(-c2cc(NC(=O)c3ccnc(C(C)(C)F)c3)cnc2C)cc1C1(C#N)CCOC1 (stereo not shown) [Example 170, N-(5′-(3-cyanotetrahydrofuran-3-yl)-6′-ethoxy-2-methyl-[3,3′-bipyridin]-5-yl)-2-(2-fluoropropan-2-yl) isonicotinamide]",2 nM
16,"Cc1ccc(NC(=O)c2cc(C(C)(C)C)nc(O)n2)cc1-c1cc(OCCO)nc(C2CCOCC2)c1 [Example 256, 6-(tert-butyl)-2-hydroxy-N-(3-(2-(2-hydroxyethoxy)-6-(tetrahydro-2H-pyran-4-yl)pyridin-4-yl)-4-methylphenyl)pyrimidine-4-carboxamide]",0.1 nM
17,"Cc1ncc(NC(=O)c2cccc(C(F)(F)F)c2)cc1-c1cc(C2CCOCC2)nc(N2CCC(O)CC2)c1 [Example 183, N-(2′-(4-hydroxypiperidin-1-yl)-2-methyl-6′-(tetrahydro-2H-pyran-4-yl)-[3,4′-bipyridin]-5-yl)-3-(trifluoromethyl) benzamide]",1.99 nM

row,Structure (SMILES),IC50
1,"Cc1ccc(NC(=O)c2ccnc(C(C)(C)C#N)c2)cc1-c1cc(OCCO)nc(C2(CF)CCOCC2)c1 [Example 213, 2-(2-cyanopropan-2-yl)-N-(3-(2-(4-(fluoromethyl)tetrahydro-2H-pyran-4-yl)-6-(2-hydroxyethoxy)pyridin-4-yl)-4-methylphenyl) isonicotinamide]",0.2 nM
2,"Cc1ccc(NC(=O)c2ccnc(C(C)(F)F)c2)cc1-c1cc(OCCO)nc(C2CCOCC2O)c1 (stereo not shown) [Example 243, 2-(1,1-difluoroethyl)-N-(3-(2-(2-hydroxyethoxy)-6-(3-hydroxytetrahydro-2H-pyran-4-yl)pyridin-4-yl)-4-methylphenyl) isonicotinamide]",1 nM
3,"CCOc1nnc(-c2cc(NC(=O)c3cc(C(F)(F)F)cnn3)ccc2C)cc1C1CCOCC1 [Example 240, N-(3-(6-ethoxy-5-(tetrahydro-2H-pyran-4-yl)pyridazin-3-yl)-4-methylphenyl)-5-(trifluoromethyl) pyridazine-3-carboxamide]",0.04 nM
4,"Cc1ncc(NC(=O)c2cccc(C(F)(F)F)c2)cc1-c1cc(NCCO)nc(C2CCOCC2)c1 [Example 180, N-(2′-((2-hydroxyethyl)amino)-2-methyl-6′-(tetrahydro-2H-pyran-4-yl)-[3,4′-bipyridin]-5-yl)-3-(trifluoromethyl) benzamide]",0.297 nM
5,"Cc1ccc(NC(=O)c2cc(C(F)(F)F)ncn2)cc1-c1cc(OC[C@H](O)CO)nc(C2CCOCC2)c1 [Example 276, (R)-N-(3-(2-(2,3-dihydroxypropoxy)-6-(tetrahydro-2H-pyran-4-yl)pyridin-4-yl)-4-methylphenyl)-6-(trifluoromethyl) pyrimidine-4-carboxamide]",0.06 nM
6,"Cc1ccc(NC(=O)c2cccc(C(F)(F)F)c2)cc1-c1cn(C)c(=O)c(C2COC2)n1 [Example 4, N-(4-methyl-3-(4-methyl-6-(oxetan-3-yl)-5-oxo-4,5-dihydropyrazin-2-yl)phenyl)-3-(trifluoromethyl)benzamide]",3 nM
7,"Cc1ccc(NC(=O)c2ccnc(Cl)c2)cc1-c1cc(OCCO)nc(C2CCOCC2)c1 [Example 264, 2-chloro-N-(3-(2-(2-hydroxyethoxy)-6-(tetrahydro-2H-pyran-4-yl)pyridin-4-yl)-4-methylphenyl) isonicotinamide]",0.2 nM
8,"Cc1ccc(NC(=O)c2cccc(C(F)(F)F)c2)cc1-c1cccc(C2COC2)c1 [Example 2, N-(6-methyl-3′-(oxetan-3-yl)-[1,1′-biphenyl]-3-yl)-3-(trifluoromethyl)benzamide]",0.7 nM
9,"Cc1ccc(NC(=O)c2cc(C(F)(F)F)nc(N(C)C)n2)cc1-c1cc(OCCO)nc(C2CCOCC2)c1 [Example 257, 2-(dimethylamino)-N-(3-(2-(2-hydroxyethoxy)-6-(tetrahydro-2H-pyran-4-yl)pyridin-4-yl)-4-methylphenyl)-6-(trifluoromethyl) pyrimidine-4-carboxamide]",1 nM
10,"Cc1ccc(NC(=O)c2ccnc(C(F)(F)F)c2)cc1-c1cc(OCCO)nc(C2CCOCC2O)c1 (single isomer, unassigned) [Example 250]",1 nM
11,"Cc1ccc(NC(=O)c2ccnc(C(F)(F)F)c2)cc1-c1cc2c(c(C3CCOCC3)c1)OC(C)(C)C(=O)N2 [Example 196, N-(3-(2,2-dimethyl-3-oxo-8-(tetrahydro-2H-pyran-4-yl)-3,4-dihydro-2H-benzo[b][1,4]oxazin-6-yl)-4-methylphenyl)-2-(trifluoromethyl) isonicotinamide]",0.4 nM
12,"CCOc1ncc(-c2cc(NC(=O)c3ccnc(C(C)(C)C#N)c3)ccc2C)cc1C1(CO)CCOC1 (stereo not shown) [Example 289, 2-(2-cyanopropan-2-yl)-N-(3-(6-ethoxy-5-(3-(hydroxymethyl)tetrahydrofuran-3-yl)pyridin-3-yl)-4-methylphenyl) isonicotinamide]",2 nM
13,"COc1ncc(-c2cc(C(=O)Nc3cccc(C(F)F)c3)ccc2C)cc1C1(O)COC1 [Example 18, N-(3-(difluoromethyl)phenyl)-3-(5-(3-hydroxyoxetan-3-yl)-6-methoxypyridin-3-yl)-4-methylbenzamide]",0.6 nM
14,Cc1ccc(NC(=O)c2ccnc(C(F)(F)F)c2)cc1-c1cc(OCCO)nc(C2(CF)CCOCC2)c1 [Example 210],0.3 nM
15,Cc1ccc(NC(=O)c2ccnc(C(C)(C)C#N)c2)cc1-c1cc(OCCO)nc(C2CCOCC2O)c1 (stereo not shown) [Example 246],6 nM
16,"Cc1ccc(NC(=O)c2ccnc(C#N)c2)cc1-c1cc(OCCO)nc(C2CCOCC2)c1 [Example 263, 2-cyano-N-(3-(2-(2-hydroxyethoxy)-6-(tetrahydro-2H-pyran-4-yl)pyridin-4-yl)-4-methylphenyl) isonicotinamide]",0.2 nM
17,Cc1ncc(NC(=O)c2ccc(CO)c(C(F)(F)F)c2)cc1-c1cccc(C2COC2)c1 [Example 7],1 nM
